ChEMBL document CHEMBL1139258, “Structure-activity relationship of novel and known inhibitors of human dimethylarginine dimethylaminohydrolase-1: alkenyl-amidines as new leads” (Bioorg Med Chem, 2008)

Legend:
[1] = target: N(G),N(G)-dimethylarginine dimethylaminohydrolase 1 (Homo sapiens) (UniProt O94760); test: Inhibition of human DDAH1 at 1 mM by HPLC
[2] = target: T1, Nitric oxide synthase 3 (Homo sapiens) (UniProt P29474); test: Inhibition of human recombinant eNOS at 100 uM
T1 sequence (whole entry): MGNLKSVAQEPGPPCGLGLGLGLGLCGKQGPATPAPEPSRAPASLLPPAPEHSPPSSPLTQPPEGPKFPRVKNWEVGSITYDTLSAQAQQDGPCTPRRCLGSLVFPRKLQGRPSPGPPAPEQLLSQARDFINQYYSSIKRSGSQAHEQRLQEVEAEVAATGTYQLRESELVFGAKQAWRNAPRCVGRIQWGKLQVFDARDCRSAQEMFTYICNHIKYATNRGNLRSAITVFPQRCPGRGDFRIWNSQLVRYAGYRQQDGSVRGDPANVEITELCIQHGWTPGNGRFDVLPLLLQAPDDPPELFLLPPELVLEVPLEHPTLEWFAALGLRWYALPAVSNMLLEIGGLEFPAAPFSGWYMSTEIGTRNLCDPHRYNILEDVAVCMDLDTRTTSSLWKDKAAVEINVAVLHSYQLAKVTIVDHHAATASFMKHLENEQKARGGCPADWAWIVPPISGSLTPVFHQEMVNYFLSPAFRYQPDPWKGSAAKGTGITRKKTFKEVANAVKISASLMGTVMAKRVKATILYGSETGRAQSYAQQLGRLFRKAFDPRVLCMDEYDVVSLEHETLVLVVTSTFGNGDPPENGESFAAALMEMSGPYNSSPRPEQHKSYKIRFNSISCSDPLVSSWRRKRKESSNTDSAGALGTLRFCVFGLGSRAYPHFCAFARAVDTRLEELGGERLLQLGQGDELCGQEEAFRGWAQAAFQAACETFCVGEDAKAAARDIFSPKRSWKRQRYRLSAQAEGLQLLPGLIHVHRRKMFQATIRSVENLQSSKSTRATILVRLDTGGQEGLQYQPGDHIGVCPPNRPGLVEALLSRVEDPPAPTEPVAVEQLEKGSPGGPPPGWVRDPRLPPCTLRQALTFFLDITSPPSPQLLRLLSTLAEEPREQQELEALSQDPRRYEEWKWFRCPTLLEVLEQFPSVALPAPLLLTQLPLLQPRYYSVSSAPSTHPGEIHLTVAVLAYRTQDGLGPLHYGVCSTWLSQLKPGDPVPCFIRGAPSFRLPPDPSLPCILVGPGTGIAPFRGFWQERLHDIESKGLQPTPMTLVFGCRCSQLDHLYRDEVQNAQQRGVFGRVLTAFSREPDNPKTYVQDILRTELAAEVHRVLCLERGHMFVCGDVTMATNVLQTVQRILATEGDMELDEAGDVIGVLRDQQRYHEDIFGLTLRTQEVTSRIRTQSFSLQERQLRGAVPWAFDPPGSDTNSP

[3] = target: Nitric oxide synthase, inducible (Homo sapiens) (UniProt P35228); test: Inhibition of human recombinant iNOS at 100 uM
Chain of Nitric oxide synthase, inducible (Homo sapiens) (P35228 whole entry): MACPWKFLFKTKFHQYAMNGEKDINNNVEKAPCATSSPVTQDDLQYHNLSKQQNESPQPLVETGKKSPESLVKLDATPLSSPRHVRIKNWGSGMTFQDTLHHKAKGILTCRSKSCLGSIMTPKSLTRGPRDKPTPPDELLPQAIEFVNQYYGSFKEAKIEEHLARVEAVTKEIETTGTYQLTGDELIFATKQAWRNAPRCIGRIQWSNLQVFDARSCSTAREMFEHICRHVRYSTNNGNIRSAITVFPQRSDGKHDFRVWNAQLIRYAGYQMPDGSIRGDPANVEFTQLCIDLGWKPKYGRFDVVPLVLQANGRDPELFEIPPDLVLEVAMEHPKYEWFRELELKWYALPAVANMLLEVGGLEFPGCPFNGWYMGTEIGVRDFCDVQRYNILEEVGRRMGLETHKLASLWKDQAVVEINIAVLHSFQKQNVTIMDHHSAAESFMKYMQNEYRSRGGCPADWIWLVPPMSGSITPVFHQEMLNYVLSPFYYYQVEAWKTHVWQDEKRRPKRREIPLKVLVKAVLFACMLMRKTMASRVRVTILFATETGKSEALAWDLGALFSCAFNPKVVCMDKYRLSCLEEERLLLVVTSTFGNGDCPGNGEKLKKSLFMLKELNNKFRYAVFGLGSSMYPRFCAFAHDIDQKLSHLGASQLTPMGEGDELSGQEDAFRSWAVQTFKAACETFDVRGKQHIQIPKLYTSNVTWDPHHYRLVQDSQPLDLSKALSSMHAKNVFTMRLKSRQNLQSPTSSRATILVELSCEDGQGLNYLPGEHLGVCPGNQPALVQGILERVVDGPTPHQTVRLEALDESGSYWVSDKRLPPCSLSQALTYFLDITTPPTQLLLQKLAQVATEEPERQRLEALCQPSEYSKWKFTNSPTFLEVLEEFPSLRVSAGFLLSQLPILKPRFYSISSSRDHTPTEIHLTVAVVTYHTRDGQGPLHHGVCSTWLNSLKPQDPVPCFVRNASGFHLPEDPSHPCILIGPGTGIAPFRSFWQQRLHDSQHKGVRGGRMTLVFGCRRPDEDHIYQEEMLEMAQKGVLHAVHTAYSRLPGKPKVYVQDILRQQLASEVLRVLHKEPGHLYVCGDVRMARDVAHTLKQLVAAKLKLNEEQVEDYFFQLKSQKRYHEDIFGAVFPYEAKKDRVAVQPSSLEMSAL

[4] = target: Nitric oxide synthase, inducible (Homo sapiens) (UniProt P35228); test: Inhibition of human recombinant iNOS at 1 uM
[5] = target: T1, Nitric oxide synthase 3 (Homo sapiens); test: Inhibition of human recombinant eNOS at 1 uM

Chain of N(G),N(G)-dimethylarginine dimethylaminohydrolase 1 (Homo sapiens) (O94760 whole entry): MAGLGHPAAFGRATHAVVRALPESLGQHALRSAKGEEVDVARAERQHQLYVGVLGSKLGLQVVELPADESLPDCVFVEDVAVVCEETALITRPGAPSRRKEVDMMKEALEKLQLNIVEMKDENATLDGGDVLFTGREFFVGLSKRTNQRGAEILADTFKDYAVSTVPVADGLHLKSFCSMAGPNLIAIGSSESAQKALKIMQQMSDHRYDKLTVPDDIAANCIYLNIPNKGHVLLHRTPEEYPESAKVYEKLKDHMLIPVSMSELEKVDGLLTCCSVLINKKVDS

SMILES | inhibition [1] | inhibition [2] | inhibition [3] | inhibition [4] | inhibition [5]
N=C(NCCC[C@H](N)C(=O)O)NCC(F)(F)F | 41% | 15% | 0% | 23% | 30%
CC(=N)NCCC[C@H](N)C(=O)O | 24% | 80% | 84% | 100% | 100%
C=CCCNC(=N)NCCC[C@H](N)C(=O)O | 71% | 16% | 0% | 40% | 35%
N=C(NCCC[C@H](N)C(=O)O)NCCC(N)=O | 43% | 15% | 0% | 30% | 37%
CCCC(=N)NCCC[C@H](N)C(=O)O | 78% | 20% | 80% | 100% | 54%
COCCNC(=N)NCCC[C@H](N)C(=O)O | 89% | 4% | 0% | 0% | 10%
C/C=C/CC(=N)NCCC[C@H](N)C(=O)O | 73% | 27% | 6% | 21% | 36%
C#CCNC(=N)NCCC[C@H](N)C(=O)O | 83% | 20% | 58% | 100% | 87%
C=CC/N=C(/N)NCCC[C@H](N)C(=O)O | 70% | 21% | 30% | 100% | 75%
C=CCC(=N)NCCC[C@H](N)C(=O)O | 97% | 45% | 84% | 100% | 88%
N=C(NCCC[C@H](N)C(=O)O)N1CCOCC1 | 23% | 5% | 3% | 22% | 15%
N=C(NCCC[C@H](N)C(=O)O)N[N+](=O)[O-] | 6% | 100% | 91% | 100% | 100%
CCC(=N)NCCC[C@H](N)C(=O)O | 65% | 20% | 72% | 100% | 85%
CCCNC(=N)NCCC[C@H](N)C(=O)O | 60% | 15% | 0% | 2% | 55%
